Data taken from patent US20040219217A1, “Conjugates of polysaccharide polymers of natural origin” (priority 2001, published 2004).

Columns and labels:
[1] = in vitro cleavage of the conjugation in artificial sweat; assay type: physicochemical; conditions: 18 h hydrolysis, skin's usual pH, 37° C.
Experimental: In the following table 2, different chemical conjugations contemplated by the present invention have been tested for in vitro cleavage under conditions simulating the topical application of the polysaccharide polymers of the present invention to the skin. In particular, for evaluating the biodegradability of a given chemical conjugation established between cotton and an active substance, the conjugate is subjected to hydrolysis at the skin's usual pH at 37° C. under mild agitation in the presence of an enzymatic mixture known as “artificial sweat”. After the pre-established time period of contact with the hydrolysis medium, the same was analyzed for the active substances or their fragments contained therein. The examples as listed below were chosen on the following grounds: […]

[2] = tested on: experimental sclerosis in femoral veins; assay: experimental sclerosis in rabbits' femoral veins; assay type: in vivo; conditions: rabbit femoral vein, carbon tetrachloride as sclerotizing agent, gauze bandage, after ten days
Experimental: 4. Influence of the application of derivatized cotton fibres on the entity of experimental sclerosis in rabbits' femoral veins.
After a suitable depilation a rabbit's femoral vein is closed for a length of about 5 cm by means of suture stitches downstream and upstream.
Within the separated area 0.05 ml of carbon tetrachloride in 10% solution (Fluka 87031) is added as sclerotizing agent.
The area is suitably bandaged with normal cotton gauzes (control) or derivatized gauzes so that they perfectly adhere to the treated area.
After ten days the vein fragments undergoing stasis are taken and controlled with a microscope to check the parietal state and the consistency of the sclerotizing deposits.
It is thus possible to observe how the application in the area receiving layers of derivatized cotton gauzes with: […]

[3] = tested on: subcutaneous lipid deposit; assay: experimental subcutaneous lipid deposit in rats; assay type: in vivo; conditions: abdominal tissue, gauze applied from the eighth day, after thirty days
Experimental: 7. Influence of the application of derivatized cotton fibres on experimental subcutaneous lipid deposit in rats.
The experiments were carried out on adult rats by injecting into their subcutaneous abdominal areas a lipid fraction rich in cholesterol (Sigma L 4646), and daily repeating the administrations until a stabilized subcutaneous lipid deposit is obtained; the fat mixture is injected in six adjacent sites in a volume of 0.2 ml/location for 7 days.
Then, from the eighth day on, cotton gauzes obtained from fibre derivatized with lipase (example II.F. above) are applied onto said areas in a perfectly adhering way.
After thirty days the animals are killed and the treated abdomen areas is taken. Aliquots of said area of about 2 g, precisely weighed, are homogenized in a Waring blender and the lipid content is extracted by adding aliquots of ethyl ether under strong stirring: three extractions with 20 ml of solvent each.
The ether fractions are mixed and concentrated in a rotary evaporator until dryness.
The concentration/g of extracted lipid tissue is determined by weighing said extracts.

mite population = conditions: dust collected after two days, vs underivatized fabrics
Experimental: 8. Performance of anti-mite fabrics.
Cotton fibres conjugated to acaricides (as set out in the chemical experimental part above) were used for obtaining fabrics (woven and non-woven) used in turn for the manufacture of household articles (curtains, carpet floor and the like) placed in living environments. In particular, living environments (flats, apartments and houses) at the countryside at locations particularly exposed to dust and ventilation were chosen. Moreover, the tests were conducted during spring, which is the period with the highest mite contamination risk.
After two days of total exposure of the living environments to the open air, at the point in time zero, the dust was removed through vacuum cleaning and the presence and the status of the mite population contained therein was subjected to microscopic examination. Thereafter, some of the living environments, after appropriate randomization, were equipped with the fabrics according to the invention obtained from fibres conjugated to acaricides, thus making up a first test group. On the other hand, the remaining living environments were equipped with fabrics from customary cotton thereby making up a second test group as a control for the development of the mite population.
After another two days, the dust from both of the test groups was collected and the overall number of mites as well as the number of living mites was established.

Escherichia coli = assay: plate culture growth under derivatized cotton gauze; assay type: cell-based; conditions: E. coli, 24 hours at 37° C., vs normal growth conditions
Source text: (§1) 2. Evaluation of the influence of cotton derivatized with germicides, with anti-bacterial or anti-fungi agents in the development and amount of microorganic flora.
(§2) The influence of suitably derivatized cotton fibre on the development of microorganic flora has been determined “in vitro” on plate growing cultures of various micro-organisms: Candida albicans, Escherichia coli, Staphylococcus aureus isolated and characterized by contaminated organic material.
(§3) To this purpose growth selective mediums are prepared (sabouraud agar for fungi and nutrient agar for bacteria) with which Petri dishes are prepared.
(§4) On the medium surface the microorganism culture is applied by deposition of one ml of a suspension of said microorganism containing 10^9 microorganisms, lightly agitating so as to cover the whole plate surface.
(§5) A cotton gauze obtained from fibre derivatized with the various substances taken into consideration is then applied onto the surface; the whole is then placed in a thermostat at 37° C.
(§6) After 24 hours the gauze is removed and the developed colonies are compared with plates in normal growth conditions.
(§7) The reduction in percentage of the growth in the plates characterized by conjugated gauze is evaluated with respect to normal growth conditions.

Staphylococcus aureus = assay: as above; assay type: cell-based; conditions: S. aureus, 24 hours at 37° C., vs normal growth conditions
Source text: as §1, §2, §3, §4, §5, §6, §7

Candida albicans = assay: as above; assay type: cell-based; conditions: C. albicans, 24 hours at 37° C., vs normal growth conditions
Source text: as §1, §2, §3, §4, §5, §6, §7

[4] = tested on: granuloma from cotton pellets; assay: induction of granuloma from cotton pellets; assay type: in vivo; conditions: rats, subcutaneous cotton pellet 1 g, after fifteen days, vs simple cotton
Source text: 3. Influence of fibre derivatized with anti-inflammatories or with immunostimulating agents on the phlogogenic process.
The experiments have been carried out on rats through the test of induction of granuloma from “cotton pellets”.
According to this test cotton pellets having a pre-established weight (1 g) and shape are introduced into the subcutaneous region of the subaxillary area of the animals using a cannula which can pierce the skin and the sub-skin (the scar is closed again with a suture stitch).
Around the cotton pellet a “granuloma” collagen deposit is formed, whose entity is proportional to the phlogogenic process.
After fifteen days from the operation the granuloma is taken from the animal under anesthesia and it is weighed to determine its entity.
In the present case the cotton used as a base for the implantation of the granuloma consists of: […]

UV-induced edema in skin = assay: UV-induced edema (erythema) in rats' skin; assay type: in vivo; conditions: daily application, vs animals with no application
Experimental: 6. Influence of the application of derivatized cotton fibres on UV-induced edema in rats' skin.
Adult rats are depilated on their backs and are then exposed to UV radiations until a consistent skin edema forms.
The exposition is carried out only on pre-established circular areas using suitable pierced masks.
Then normal cotton gauzes (controls) or gauzes obtained from fibre derivatized with a medicament are applied with a good adherence onto the inflamed areas. Simultaneously another group of animals is tested to check the effectiveness of the application of the same medicaments in form of 5% gel.
The regression of the erythema defined as the reduction of the entity and surface of the reddening area is controlled daily with respect to control animals with no application, and immediately afterwards the medicament is applied again in the various forms.
On the 5th day the average extension of the erythema surface is measured and its reduction in percentage with respect to the animals with no application is calculated.

cotton-S—S—CH2—CH(COOH)—N═CH-heparin
% of released active principle [1]: 50.4%
tissue sclerotic state [2]: reduce the tissue sclerotic state to a consistent extent

cotton-S—S—CH2—CH(NH—CO-lipase)-CO—NH-lipase
lower lipid content than the controls [3]: 45%

cotton-CH═N-lys-NH—CO-PABA-benzylbenzoate [III.B.2.1.1.]
Decrease (%) of total living mite population (mite population): 58%

cotton-CH═N-bacitracin
% reduction in the development of colonies (Escherichia coli): 75%
% reduction in the development of colonies (Staphylococcus aureus): 95%
% reduction in the development of colonies (Candida albicans): 65%

cotton-S-S-cys-PABA-hydrocortisone
% reduction in the weight of the granuloma [4]: 55.0%
% reduction of the erythema extension with respect to controls on the 5th day after the induction (UV-induced edema in skin): 60.0%

cotton-CH═N-procaine [Cotton/procaine]
% of released active principle [1]: 76.3%

cotton-CH2—NH-polylys-(NH—CO-PABA-benzylbenzoate)n [III.B.2.2.2.]
Decrease (%) of total living mite population (mite population): 100%

cotton-CH═N-polylys-(NH—CO-PABA-benzylbenzoate)n [III.B.2.2.1.]
Decrease (%) of total living mite population (mite population): 94%

cotton-CH═N-gramicidin
% reduction in the development of colonies (Escherichia coli): 80%
% reduction in the development of colonies (Staphylococcus aureus): 90%
% reduction in the development of colonies (Candida albicans): 65%

cotton-S-S-cys-polylys-(PABA-hydrocortisone)n
% reduction in the weight of the granuloma [4]: 90.0%
% reduction of the erythema extension with respect to controls on the 5th day after the induction (UV-induced edema in skin): 95%

cotton-CH2—NH-lys-NH—CH2-Ph-OH
% of released active principle [1]: 1.2%
% reduction in the development of colonies (Escherichia coli): 85%
% reduction in the development of colonies (Staphylococcus aureus): 85%
% reduction in the development of colonies (Candida albicans): 75%

cotton-S-S-cys-polylys-naproxen
% reduction in the weight of the granuloma [4]: 64.0%

cotton-S—S—CH2—CH(COOH)—NH—CO-naproxen
% reduction in the weight of the granuloma [4]: 30.0%

cotton-S—S-IgG [Cotton/IgG]
% of released active principle [1]: 40.8%

cotton-CH2—NH-lys-NH—CO-PABA-benzyl benzoate [III.B.2.1.2.]
Decrease (%) of total living mite population (mite population): 59%
